Test results reported in patent US10093713B2, “GIP-GLP-1 dual agonist compounds and methods” (priority 2013, dated 2018).
pEC50: −log10 of the molar value. Read-outs that look alike come from different tables or passages of the source. *1 amine or outer side, *2 acyl side, *3 side chain or, on linkers, in order; H or OH if unused. Where a SMILES comes first, the peptide text is derived from it. Side-chain parts run from the residue outwards. [ ]: non-standard residue; d: D form. The star is where a group is joined. C18 diacid = O=C(O)CCCCCCCCCCCCCCCCC(=O)*; γGlu = O=C(O)[C@H](CCC(=O)[*:2])N[*:1]; AEEA = NCCOCCOCC(=O)O; Aib = CC(C)(N)C(=O)O

What was measured:
human GIP R = target: T1, human GIP R (Homo sapiens, UniProt P48546); experiment: Human GIP receptor (GIP R) activity assay, cAMP induction (AlphaScreen) in HEK293 cells; format: cell-based; conditions: read-out: hGIP-R cAMP EC50 average value
T1 construct: expressed in transfected cells
T1 sequence (P48546 22-466): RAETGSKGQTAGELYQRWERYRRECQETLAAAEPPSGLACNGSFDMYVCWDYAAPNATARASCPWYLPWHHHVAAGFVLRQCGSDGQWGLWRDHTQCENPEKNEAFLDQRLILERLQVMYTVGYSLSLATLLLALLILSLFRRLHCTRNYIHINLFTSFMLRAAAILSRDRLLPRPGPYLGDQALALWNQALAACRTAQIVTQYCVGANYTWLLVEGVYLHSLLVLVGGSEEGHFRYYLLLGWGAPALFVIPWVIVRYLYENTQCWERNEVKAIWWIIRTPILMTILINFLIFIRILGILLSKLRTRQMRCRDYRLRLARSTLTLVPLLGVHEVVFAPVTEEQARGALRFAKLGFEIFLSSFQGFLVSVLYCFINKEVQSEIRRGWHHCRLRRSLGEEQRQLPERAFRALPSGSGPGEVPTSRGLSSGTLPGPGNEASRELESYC
Method: (§1) Human GIP Receptor (GIP R) and GLP-1 Receptor (GLP-1 R) Activity Assay
(§2) In vitro effects of peptide conjugates of the invention were assessed by measuring the induction of cAMP following stimulation of the respective receptor by GIP, GLP1 or analogues of these, as outlined in the invention, using the AlphaSceen® cAMP kit from Perkin-Elmer according to instructions. Briefly, HEK293 cells expressing the human GIP R or GLP-1 R (stable cell lines generated through transfection of the cDNA for human GIP R or GLP-1 and selection of stable clones) were seeded at 30,000 cells/well in 96-well microtiter plates coated with 0.01% poly-L-lysine, and grown for 1 day in culture in 200 μl growth medium (DMEM, 10% FCS, Penicillin (100 IU/ml), Streptomycin (100 μg/ml)). On the day of analysis, growth medium was removed and the cells were washed once with […] Tyrode's buffer (Tyrode's Salts (9.6 g/l), 10 mM HEPES, pH 7.4). […] The Assay buffer was removed and cells are lysed in 80 μl Lysis buffer (0.1% w/v BSA, 5 mM HEPES, 0.3% v/v Tween-20) per well. From each well 10 μl lysed cells was transferred to a 384-well plate and mixed with 15 μl bead-mix (1 Unit/15 μl anti-cAMP Acceptor Beads, 1 Unit/15 μl Donor Beads, and 1 Unit/15 μl Biotinylated cAMP in Assay Buffer). The plates were mixed and incubated in the dark for an hour at room temperature before measuring using an Envision™ plate reader (Perkin-Elmer).
(§3) The resulting cAMP curves were plotted as absolute cAMP concentrations (nM) over log (test compound concentration) and analyzed using the curve fitting program XLfit.
(§4) Parameters calculated to describe both the potency as well as the agonistic activity of each test compound on the receptors were:
(§5) EC50, a concentration resulting in a half-maximal elevation of cAMP levels, reflecting the potency of the test compound.

human GLP-1 R = target: T2, human GLP-1 R (Homo sapiens, UniProt P43220); experiment: Human GLP-1 receptor (GLP-1 R) activity assay, cAMP induction (AlphaScreen) in HEK293 cells; format: cell-based
T2 construct: expressed in transfected cells
T2 sequence (P43220 24-463): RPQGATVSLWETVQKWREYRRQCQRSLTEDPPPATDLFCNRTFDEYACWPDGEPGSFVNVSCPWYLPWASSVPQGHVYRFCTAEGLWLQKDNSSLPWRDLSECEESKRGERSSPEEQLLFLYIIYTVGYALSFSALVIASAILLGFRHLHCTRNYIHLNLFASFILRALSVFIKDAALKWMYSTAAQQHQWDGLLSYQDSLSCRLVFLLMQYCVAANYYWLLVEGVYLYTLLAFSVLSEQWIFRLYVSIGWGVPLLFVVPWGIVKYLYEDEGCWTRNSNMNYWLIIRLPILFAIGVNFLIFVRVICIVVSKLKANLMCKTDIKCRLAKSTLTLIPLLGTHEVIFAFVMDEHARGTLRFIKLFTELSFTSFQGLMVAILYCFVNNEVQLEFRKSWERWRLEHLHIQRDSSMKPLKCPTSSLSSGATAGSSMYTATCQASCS
Method: as §1, §2, §3, §4, §5

[1] = Table 2, HEK293 cells expressing human GIP R
[2] = Table 2a, secondary assay study
[3] = Table 3, most comprehensive data
[4] = Table 2, HEK293 cells expressing human GLP-1 R, read-out: hGLP1-R cAMP EC50 average value
[5] = Table 2a, secondary assay study, read-out: hGLP1-R cAMP EC50 average value
[6] = Table 3, most comprehensive data, read-out: hGLP-1-R cAMP EC50 average value

SMILES	pEC50 (human GIP R; [1])	pEC50 (human GIP R; [2])	pEC50 (human GIP R; [3])	pEC50 (human GLP-1 R; [4])	pEC50 (human GLP-1 R; [5])	pEC50 (human GLP-1 R; [6])
CC[C@H](C)[C@H](NC(=O)[C@H](CO)NC(=O)[C@H](Cc1ccc(O)cc1)NC(=O)[C@H](CC(=O)O)NC(=O)[C@H](CO)NC(=O)[C@@H](NC(=O)[C@H](Cc1ccccc1)NC(=O)[C@@H](NC(=O)CNC(=O)[C@H](CCC(=O)O)NC(=O)C(C)(C)NC(=O)[C@@H](N)Cc1ccc(O)cc1)[C@@H](C)O)[C@@H](C)O)C(=O)NC(C)(C)C(=O)N[C@@H](CC(C)C)C(=O)N[C@@H](CC(=O)O)C(=O)N[C@@H](CCCCN)C(=O)N[C@@H](CCCCNC(=O)COCCOCCNC(=O)COCCOCCNC(=O)CC[C@H](NC(=O)CCCCCCCCCCCCCCCCC(=O)O)C(=O)O)C(=O)N[C@@H](C)C(=O)N[C@@H](CCC(N)=O)C(=O)N[C@@H](CCCNC(=N)N)C(=O)N[C@@H](C)C(=O)N[C@@H](Cc1ccccc1)C(=O)N[C@H](C(=O)N[C@@H](CCC(=O)O)C(=O)N[C@@H](Cc1c[nH]c2ccccc12)C(=O)N[C@@H](CC(C)C)C(=O)N[C@@H](CC(C)C)C(=O)N[C@@H](C)C(=O)N[C@@H](CCC(N)=O)C(=O)NCC(=O)N1CCC[C@H]1C(=O)N[C@@H](CO)C(=O)N[C@@H](CO)C(=O)NCC(=O)N[C@@H](C)C(=O)N1CCC[C@H]1C(=O)N1CCC[C@H]1C(=O)N1CCC[C@H]1C(=O)N[C@@H](CO)C(N)=O)C(C)C [Compound 11] (H-Y[Aib]EGTFTSDYSI[Aib]LDKK([AEEA-AEEA-γGlu-C18 diacid])AQRAFVEWLLAQGPSSGAPPPS-NH2)	11.33	11.30	11.30	10.89	10.89	
CC[C@H](C)[C@H](NC(=O)[C@H](CO)NC(=O)[C@H](Cc1ccc(O)cc1)NC(=O)[C@H](CC(=O)O)NC(=O)[C@H](CO)NC(=O)[C@@H](NC(=O)[C@H](Cc1ccccc1)NC(=O)[C@@H](NC(=O)CNC(=O)[C@H](CCC(=O)O)NC(=O)C(C)(C)NC(=O)[C@@H](N)Cc1ccc(O)cc1)[C@@H](C)O)[C@@H](C)O)C(=O)N[C@@H](Cc1ccc(O)cc1)C(=O)N[C@@H](CC(C)C)C(=O)N[C@@H](CC(=O)O)C(=O)N[C@@H](CCCCN)C(=O)N[C@@H](CCCCNC(=O)COCCOCCNC(=O)COCCOCCNC(=O)CC[C@H](NC(=O)CCCCCCCCCCCCCCCCC(=O)O)C(=O)O)C(=O)N[C@@H](C)C(=O)N[C@@H](CCC(N)=O)C(=O)N[C@@H](CCCNC(=N)N)C(=O)N[C@@H](C)C(=O)N[C@@H](Cc1ccccc1)C(=O)N[C@H](C(=O)N[C@@H](CC(N)=O)C(=O)N[C@@H](Cc1c[nH]c2ccccc12)C(=O)N[C@@H](CC(C)C)C(=O)N[C@@H](CC(C)C)C(=O)N[C@@H](C)C(=O)NC(C)(C)C(=O)N[C@@H](CCCCN)C(N)=O)C(C)C [Compound 12] (H-Y[Aib]EGTFTSDYSIYLDKK([AEEA-AEEA-γGlu-C18 diacid])AQRAFVNWLLA[Aib]K-NH2)	10.96	10.92		10.80	10.77	
CC[C@H](C)[C@H](NC(=O)[C@H](Cc1ccccc1)NC(=O)[C@H](CCC(=O)O)NC(=O)[C@H](CCCCN)NC(=O)[C@H](C)NC(=O)[C@H](C)NC(=O)[C@H](CCCCNC(=O)COCCOCCNC(=O)COCCOCCNC(=O)CC[C@H](NC(=O)CCCCCCCCCCCCCCCCC(=O)O)C(=O)O)NC(=O)[C@H](CCC(=O)O)NC(=O)[C@H](CC(=O)O)NC(=O)[C@H](CC(C)C)NC(=O)[C@H](Cc1ccc(O)cc1)NC(=O)[C@@H](NC(=O)[C@H](CO)NC(=O)[C@H](Cc1ccc(O)cc1)NC(=O)[C@H](CC(=O)O)NC(=O)[C@H](CO)NC(=O)[C@@H](NC(=O)[C@H](Cc1ccccc1)NC(=O)[C@@H](NC(=O)CNC(=O)[C@H](CCC(=O)O)NC(=O)C(C)(C)NC(=O)[C@@H](N)Cc1ccc(O)cc1)[C@@H](C)O)[C@@H](C)O)[C@@H](C)CC)C(=O)N[C@@H](CCC(=O)O)C(=O)N[C@@H](Cc1c[nH]c2ccccc12)C(=O)N[C@@H](CC(C)C)C(=O)N[C@@H](CCC(=O)O)C(=O)N[C@@H](CO)C(=O)N[C@@H](C)C(N)=O [Compound 13]			9.82			10.24
CC[C@H](C)[C@H](NC(=O)[C@H](CO)NC(=O)[C@H](Cc1ccc(O)cc1)NC(=O)[C@H](CC(=O)O)NC(=O)[C@H](CO)NC(=O)[C@@H](NC(=O)[C@H](Cc1ccccc1)NC(=O)[C@@H](NC(=O)CNC(=O)[C@H](CCC(=O)O)NC(=O)C(C)(C)NC(=O)[C@@H](N)Cc1ccc(O)cc1)[C@@H](C)O)[C@@H](C)O)C(=O)N[C@@H](C)C(=O)N[C@@H](CC(C)C)C(=O)N[C@@H](CC(=O)O)C(=O)N[C@@H](CCCCN)C(=O)N[C@@H](CCCCNC(=O)COCCOCCNC(=O)COCCOCCNC(=O)CC[C@H](NC(=O)CCCCCCCCCCCCCCCCC(=O)O)C(=O)O)C(=O)N[C@@H](C)C(=O)N[C@@H](CCC(N)=O)C(=O)N[C@@H](CCCNC(=N)N)C(=O)N[C@@H](C)C(=O)N[C@@H](Cc1ccccc1)C(=O)N[C@H](C(=O)N[C@@H](CC(N)=O)C(=O)N[C@@H](Cc1c[nH]c2ccccc12)C(=O)N[C@@H](CC(C)C)C(=O)N[C@H](C(=O)N[C@@H](C)C(=O)NC(C)(C)C(=O)N[C@@H](CCCCN)C(=O)N1CCC[C@H]1C(=O)N[C@@H](CO)C(=O)N[C@@H](CO)C(=O)NCC(=O)N[C@@H](C)C(=O)N1CCC[C@H]1C(=O)N1CCC[C@H]1C(=O)N1CCC[C@H]1C(=O)N[C@@H](CO)C(N)=O)C(C)C)C(C)C [Compound 14]	11.19		11.22	11.10		11.10
CC[C@H](C)[C@H](NC(=O)[C@H](Cc1ccccc1)NC(=O)[C@H](CCC(=O)O)NC(=O)[C@H](CCCCN)NC(=O)[C@H](C)NC(=O)[C@H](C)NC(=O)[C@H](CCCCNC(=O)COCCOCCNC(=O)COCCOCCNC(=O)CC[C@H](NC(=O)CCCCCCCCCCCCCCCCC(=O)O)C(=O)O)NC(=O)[C@H](CCC(=O)O)NC(=O)[C@H](CC(=O)O)NC(=O)[C@H](CC(C)C)NC(=O)[C@H](Cc1ccc(O)cc1)NC(=O)[C@@H](NC(=O)[C@H](CO)NC(=O)[C@H](Cc1ccc(O)cc1)NC(=O)[C@H](CC(=O)O)NC(=O)[C@H](CO)NC(=O)[C@@H](NC(=O)[C@H](Cc1ccccc1)NC(=O)[C@@H](NC(=O)CNC(=O)[C@H](CCC(=O)O)NC(=O)C(C)(C)NC(=O)[C@@H](N)Cc1ccc(O)cc1)[C@@H](C)O)[C@@H](C)O)[C@@H](C)CC)C(=O)N[C@@H](CCC(=O)O)C(=O)N[C@@H](Cc1c[nH]c2ccccc12)C(=O)N[C@@H](CC(C)C)C(=O)N[C@@H](CCC(=O)O)C(=O)N[C@@H](CO)C(=O)N[C@@H](C)C(N)=O [Compound 14]		9.83			10.25	
CC[C@H](C)[C@H](NC(=O)[C@H](CO)NC(=O)[C@H](Cc1ccc(O)cc1)NC(=O)[C@H](CC(=O)O)NC(=O)[C@H](CO)NC(=O)[C@@H](NC(=O)[C@H](Cc1ccccc1)NC(=O)[C@@H](NC(=O)CNC(=O)[C@H](CCC(=O)O)NC(=O)C(C)(C)NC(=O)[C@@H](N)Cc1ccc(O)cc1)[C@@H](C)O)[C@@H](C)O)C(=O)N[C@@H](C)C(=O)N[C@@H](CC(C)C)C(=O)N[C@@H](CC(=O)O)C(=O)N[C@@H](CCCCN)C(=O)N[C@@H](CCCCNC(=O)COCCOCCNC(=O)COCCOCCNC(=O)CC[C@H](NC(=O)CCCCCCCCCCCCCCCCC(=O)O)C(=O)O)C(=O)N[C@@H](C)C(=O)N[C@@H](CCC(N)=O)C(=O)N[C@@H](CCCNC(=N)N)C(=O)N[C@@H](C)C(=O)N[C@@H](Cc1ccccc1)C(=O)N[C@H](C(=O)N[C@@H](CC(N)=O)C(=O)N[C@@H](Cc1c[nH]c2ccccc12)C(=O)N[C@@H](CC(C)C)C(=O)N[C@H](C(=O)N[C@@H](C)C(=O)NC(C)(C)C(=O)N[C@@H](CCCCN)C(=O)N1CCC[C@H]1C(=O)N[C@@H](CO)C(=O)N[C@@H](CO)C(=O)NCC(=O)N[C@@H](C)C(=O)N1CCC[C@H]1C(=O)N1CCC[C@H]1C(=O)N1CCC[C@H]1C(=O)N[C@@H](CO)C(N)=O)C(C)C)C(C)C [Compound 15]		11.22			11.10	
